In patent US20190367448A1, “TREATMENT OF SLEEP-WAKE DISORDERS” (SK Biopharmaceuticals Co., Ltd., priority 2005, published 2019):

System: male adult Sprague Dawley rats
Test: Sleep-wake organization in rats, polysomnographic recording (EEG, EOG, EMG, body movement) for 16 hours after acute i.p. administration
Assay type: in vivo, rat
Details: rats; for Duration (min) Active wake / Duration (min) Deep sleep / Duration (min) Light sleep / Duration (min) Passive wake / Duration (min) REM sleep / Duration (min) intermediate stage / ISWS/TST (%) / Latency (min) ISWS / Latency (min) REM sleep / Latency (min) dSWS / REMS/TST (%) / Shifts (number) Shift from ISWS to AW / Shifts (number) Shift from ISWS to PW / Shifts (number) Shift from REMS to AW / Shifts (number) Shift from REMS to PW / Shifts (number) Shift from dSWS to AW / Shifts (number) Shift from dSWS to PW / Total sleep time TST / dSWS/TST (%): 16 hours recording period; for change in number of active wakefulness epochs / change in number of deep sleep epochs / change in number of light sleep epochs / change in duration of active wakefulness / change in time spent in deep sleep / change in time spent in light sleep / change in number of REM sleep epochs / change in duration of REM sleep: 10 mg/kg
[1] = highest dose tested, 16 hours recording

COC(=O)[C@H]1[C@@H](OC(=O)c2ccccc2)C[C@@H]2CC[C@H]1N2C [Cocaine, cocaine]
Duration (min) Active wake (1 mg/kg i.p.): 331.5 min | Duration (min) Deep sleep (1 mg/kg i.p.): 162.9 min | Duration (min) Light sleep (1 mg/kg i.p.): 293.2 min | Duration (min) Passive wake (1 mg/kg i.p.): 69.8 min | Duration (min) REM sleep (1 mg/kg i.p.): 84.2 min | Duration (min) intermediate stage (1 mg/kg i.p.): 6.7 min | ISWS/TST (%) (1 mg/kg i.p.): 51.8 ± 4.5% | Latency (min) ISWS (1 mg/kg i.p.): 69.9 ± 51.2 min | Latency (min) REM sleep (1 mg/kg i.p.): 74.3 ± 12.1 min | Latency (min) dSWS (1 mg/kg i.p.): 79.3 ± 26.7 min | REMS/TST (%) (1 mg/kg i.p.): 15.4 ± 0.9% | Shifts (number) Shift from ISWS to AW (1 mg/kg i.p.): 184.1 number | Shifts (number) Shift from ISWS to PW (1 mg/kg i.p.): 128.6 number | Shifts (number) Shift from REMS to AW (1 mg/kg i.p.): 74.5 number | Shifts (number) Shift from REMS to PW (1 mg/kg i.p.): 17.0 number | Shifts (number) Shift from dSWS to AW (1 mg/kg i.p.): 10.1 number | Shifts (number) Shift from dSWS to PW (1 mg/kg i.p.): 66.6 number | Total sleep time TST (1 mg/kg i.p.): 547.0 ± 51.5 min | dSWS/TST (%) (1 mg/kg i.p.): 31.2 ± 4.8% | Duration (min) Active wake (3 mg/kg i.p.): 324.8 min | Duration (min) Deep sleep (3 mg/kg i.p.): 172.6 min | Duration (min) Light sleep (3 mg/kg i.p.): 303.2 min | Duration (min) Passive wake (3 mg/kg i.p.): 66.7 min | Duration (min) REM sleep (3 mg/kg i.p.): 76.7 min | Duration (min) intermediate stage (3 mg/kg i.p.): 5.7 min | ISWS/TST (%) (3 mg/kg i.p.): 53.8 ± 6.3% | Latency (min) ISWS (3 mg/kg i.p.): 41.5 ± 9.2 min | Latency (min) REM sleep (3 mg/kg i.p.): 112.0 ± 12.2 min | Latency (min) dSWS (3 mg/kg i.p.): 68.6 ± 7.6 min | REMS/TST (%) (3 mg/kg i.p.): 13.8 ± 1.1% | Shifts (number) Shift from ISWS to AW (3 mg/kg i.p.): 218.5 number | Shifts (number) Shift from ISWS to PW (3 mg/kg i.p.): 142.2 number | Shifts (number) Shift from REMS to AW (3 mg/kg i.p.): 56.0 number | Shifts (number) Shift from REMS to PW (3 mg/kg i.p.): 10.7 number | Shifts (number) Shift from dSWS to AW (3 mg/kg i.p.): 10.2 number | Shifts (number) Shift from dSWS to PW (3 mg/kg i.p.): 64.5 number | Total sleep time TST (3 mg/kg i.p.): 558.2 ± 21.2 min | dSWS/TST (%) (3 mg/kg i.p.): 31.4 ± 6.1% | Duration (min) Active wake (10 mg/kg i.p.): 347.3 min | Duration (min) Deep sleep (10 mg/kg i.p.): 171.9 min | Duration (min) Light sleep (10 mg/kg i.p.): 294.6 min | Duration (min) Passive wake (10 mg/kg i.p.): 55.0 min | Duration (min) REM sleep (10 mg/kg i.p.): 74.7 min | Duration (min) intermediate stage (10 mg/kg i.p.): 6.3 min | ISWS/TST (%) (10 mg/kg i.p.): 53.8 ± 4.0% | Latency (min) ISWS (10 mg/kg i.p.): 101.8 ± 6.9 min | Latency (min) REM sleep (10 mg/kg i.p.): 192.1 ± 18.5 min | Latency (min) dSWS (10 mg/kg i.p.): 138.8 ± 8.7 min | REMS/TST (%) (10 mg/kg i.p.): 13.8 ± 1.5% | Shifts (number) Shift from ISWS to AW (10 mg/kg i.p.): 201.2 number | Shifts (number) Shift from ISWS to PW (10 mg/kg i.p.): 132.6 number | Shifts (number) Shift from REMS to AW (10 mg/kg i.p.): 52.3 number | Shifts (number) Shift from REMS to PW (10 mg/kg i.p.): 9.2 number | Shifts (number) Shift from dSWS to AW (10 mg/kg i.p.): 10.4 number | Shifts (number) Shift from dSWS to PW (10 mg/kg i.p.): 37.6 number | Total sleep time TST (10 mg/kg i.p.): 547.6 ± 18.2 min | dSWS/TST (%) (10 mg/kg i.p.): 31.3 ± 4.2% | change in number of active wakefulness epochs (0.5 h): +111% | change in number of deep sleep epochs (0.5 h): −100% | change in number of light sleep epochs (0.5 h): −100% | change in duration of active wakefulness (0.5 h after treatment): +111% | change in time spent in deep sleep (0.5 h after treatment): 90% | change in time spent in light sleep (0.5 h after treatment): −100% | change in number of REM sleep epochs (0.5 hr): −100% | change in duration of REM sleep (0.5 hr after administration): −100% | change in number of active wakefulness epochs (1 h): +500% | change in duration of active wakefulness (1 h after treatment): +500% | change in time spent in deep sleep (1 h after treatment): −100% | change in time spent in light sleep (1 h after treatment): −99% | change in number of REM sleep epochs (1 hr): −100% | change in number of deep sleep epochs (1 hr): −100% | change in number of light sleep epochs (1 hr): −99% | change in duration of REM sleep (1 hr after administration): −100% | change in number of deep sleep epochs (1.5 h): −100% | change in number of light sleep epochs (1.5 h): −87% | change in number of REM sleep epochs (1.5 hr): −100% | change in number of active wakefulness epochs (1.5 hr): +312% | change in duration of REM sleep (1.5 hr after administration): −100% | change in duration of active wakefulness (1.5 hr after treatment): +312% | change in time spent in deep sleep (1.5 hr after treatment): −99% | change in time spent in light sleep (1.5 hr after treatment): −87% | change in number of active wakefulness epochs (2 h): +119% | change in duration of active wakefulness (2 h after treatment): +120% | change in time spent in deep sleep (2 h after treatment): −70% | change in time spent in light sleep (2 h after treatment): −25% | change in number of REM sleep epochs (2 hr): −87% | change in number of deep sleep epochs (2 hr): −38% | change in number of light sleep epochs (2 hr): −22% | change in duration of REM sleep (2 hr after administration): −87% | change in number of REM sleep epochs (2.5 hr): −47% | change in number of active wakefulness epochs (2.5 hr): +166% | change in duration of REM sleep (2.5 hr after administration): −47% | change in duration of active wakefulness (2.5 hr after treatment): +166% | change in number of REM sleep epochs (3 hr): −78% | change in number of active wakefulness epochs (3 hr): +77% | change in duration of REM sleep (3 hr after administration): −78% | change in duration of active wakefulness (3 hr after treatment): +77% | decrease in total time spent in REM sleep [1]: −18% | increase in total duration of active wakefulness [1]: +14%
